Experimental data: ChEMBL document CHEMBL1154198, “Chemical genetics of Plasmodium falciparum” (Nature, 2010)

How the values were obtained:
Plasmodium falciparum [1] = test: ST_JUDE: Plasmodium falciparum K1 EC50 (uM) as measured by SYBR green dye; type: functional, organism-based
Plasmodium falciparum [2] = test: ST_JUDE: Plasmodium falciparum 3D7 EC50 (uM) as measured by SYBR green dye; type: functional, organism-based

SMILES	EC50 (Plasmodium falciparum [1])	EC50 (Plasmodium falciparum [2])
O=C(O)c1cccc(NC2=C(N3CCCCC3)C(=O)c3ccccc3C2=O)c1	4.82 µM	> 15 µM
O=C(COc1cccc(Br)c1)N/N=C/c1ccc(Br)cc1	> 15 µM	> 15 µM
CC(C)(C)OC(=O)CCN1C(=O)CSC1c1cnccc1-c1ccc(Br)cc1 (configuration not stated)	3.17 µM	2.32 µM
Cc1cccc(CN2C(=O)/C(=C\c3ccccc3)Sc3ccc(C(=O)NCCN(C)C4CCCCC4)cc32)c1	3.75 µM	1.78 µM
COc1ccc(Nc2cc(C)nc(Nc3ccc(NS(=O)(=O)c4cccc(C)c4)cc3)n2)cc1	> 15 µM	1.99 µM
CCOC(=O)c1cnc2c(C)cccc2c1NCCCN1CCOCC1	1.43 µM	0.647 µM
COC(=O)CNC(c1ccccc1)c1cc(Br)ccc1NC(=O)c1ccccc1 (configuration not stated)	6.06 µM	6.83 µM
CC(C)(C)c1ccc(-c2nc(-c3ccncc3)no2)cc1	> 15 µM	> 15 µM
CCN(CC)CCNc1nc(Nc2cccc(OC)c2)c2cnn(-c3ccccc3)c2n1	2.96 µM	0.458 µM
COc1nc(N=C(N)N)nc2c(C)cccc12	3.41 µM	2.42 µM
CCCCc1ccc2nc(C)c(CN(C)C3CCN(C)CC3)c(O)c2c1	> 15 µM	> 15 µM
C/C(Cl)=C\C[N+]1(C/C=C(\C)Cl)CCCCC1	> 15 µM	> 15 µM
CC1CC(C)CN(C(=O)c2ccc(Cl)cc2Cl)C1 (configuration not stated)	> 15 µM	1.32 µM
O=C(CSc1nc(-c2ccccc2Cl)ns1)Nc1cccc(Cl)c1	1.7 µM	1.39 µM
Oc1c(CN2CCN(c3cccc(Cl)c3)CC2)cc(Br)c2cccnc12	> 15 µM	0.88 µM
COc1ccc2sc(N(Cc3cccnc3)C(=O)c3ccc(F)cc3)nc2c1	1.49 µM	> 15 µM
C#CCSc1c(CCCC)cnc2c1c(=O)n(C)c(=O)n2C	> 15 µM	> 15 µM
CC(=O)c1cccc(CN2CCN(CC(C)C)C(CCO)C2)c1 (configuration not stated)	> 15 µM	> 15 µM
CCCC(=O)NC(c1ccc(Cl)cc1)c1c(OC(C)=O)ccc2ccccc12 (configuration not stated)	9.29 µM	6.92 µM
Cc1ccc2nc(Nc3nc(O)c4ccccc4n3)nc(C)c2c1	4.56 µM	6.29 µM
COc1cccc(NC(=O)Cn2c3ccccc3c(=O)c3cc(Cl)ccc32)c1	5.45 µM	> 15 µM
O=C(CSc1nccn1Cc1ccccc1Cl)Nc1cc(C(F)(F)F)ccc1Cl	1.39 µM	> 15 µM
O=C(NC(c1ccc([N+](=O)[O-])cc1)c1cc(Cl)c2cccnc2c1O)c1cccnc1 (configuration not stated)	1.52 µM	2.51 µM
COc1ccc(OC)c(C2C(C(=O)OC(C)C)=C(C)N=c3s/c(=C\c4ccc(O)cc4)c(=O)n32)c1 (configuration not stated)	1.39 µM	> 15 µM

SMILES	EC50 (Plasmodium falciparum [1])	EC50 (Plasmodium falciparum [2])
COc1ccc(OC)c(N2C(=O)c3cccc4c([N+](=O)[O-])ccc(c34)C2=O)c1	> 15 µM	> 15 µM
CCCN1CCN(CCCNC(=O)c2ccc3c(c2)sc2nc(-c4cccc(OC)c4)cn23)CC1	3.18 µM	1.21 µM
CC(=O)NC(c1ccc(Cl)cc1Cl)c1ccc2cccnc2c1O (configuration not stated)	3.01 µM	3.22 µM
CCOC(=O)CCc1c(C)c2cc3c(c(C)c2oc1=O)OCN(Cc1ccccc1OC)C3	1.22 µM	3.04 µM
CCCOc1ccc(-c2nonc2NC(=O)c2cccc(OCC)c2)cc1OCCC	0.444 µM	> 15 µM
O=C(CSc1ccc2nnc(-c3cccc(F)c3)n2n1)Nc1cccc(F)c1	1.08 µM	> 15 µM
CCOc1ccc(Nc2nc(NCc3ccco3)c3ccccc3n2)cc1	2.64 µM	1.19 µM
CCc1cc(-c2[nH]nc(C)c2Oc2ccc(Cl)cc2)c(O)cc1OC	3.2 µM	4.85 µM
CCOC(=O)c1cnc2ccc(OCC)cc2c1NCCc1ccccc1	> 15 µM	> 15 µM
COc1ccc(OC)c(/C=N/Nc2nc3ccccc3[nH]2)c1	> 15 µM	3.64 µM
COc1ccc(Nc2cc(C)nc(Nc3ccc(NS(=O)(=O)c4ccc(C)cc4)cc3)n2)cc1	> 15 µM	0.559 µM
COc1ccccc1CNC(=O)C1c2ccccc2C(=O)N(CC(C)C)C1c1cccs1 (configuration not stated)	3.7 µM	3.16 µM
COc1cccc(C2C(C(=O)Nc3ccccc3C)=C(C)Nc3nnnn32)c1 (configuration not stated)	> 15 µM	> 15 µM
COc1ccc(CCN2C(=O)c3[nH]nc(-c4ccccc4O)c3C2c2ccc(F)cc2)cc1 (configuration not stated)	> 15 µM	> 15 µM
Cc1ccc(Nc2nc(N/N=C/c3ccc(/C=N/Nc4nc(Nc5ccc(C)cc5)nc(N5CCOCC5)n4)cc3)nc(N3CCOCC3)n2)cc1	1.43 µM	1.58 µM
C=CCN1C=CC(=Cc2ccc3cc(C)ccc3[n+]2CC)C=C1	0.55 µM	1.4 µM
CC(=O)C1=C(c2ccc(Br)cc2)N(C(C)=O)n2cnnc2S1	1.56 µM	> 15 µM
CC(C)CN(CC(C)C)S(=O)(=O)c1ccc(C(=O)Nc2nc(-c3ccccn3)cs2)cc1	3.28 µM	> 15 µM
COc1ccc(/C=C(\C#N)c2nn(CCO)c(N)c2C#N)cc1	> 15 µM	> 15 µM
Cc1ccc(CNC(=O)/C=C/c2ccc([N+](=O)[O-])cc2)cc1	> 15 µM	> 15 µM
CC(=O)Nc1ccc(S(=O)(=O)Nc2ccc(Nc3nc(C)cc(N(C)C)n3)cc2)cc1	6.27 µM	1.95 µM
CCN(CC)CCNc1nc(Nc2ccc(F)cc2)c2cnn(-c3ccccc3)c2n1	3.02 µM	1.34 µM
CCOc1ccc(CCNC(=O)Nc2ccc(F)cc2)cc1OCC	> 15 µM	4.48 µM
CCN(CC)CCn1c(=N)n(CC(O)COc2ccc(Cl)cc2Cl)c2ccccc21 (configuration not stated)	2.88 µM	0.954 µM

SMILES	EC50 (Plasmodium falciparum [1])	EC50 (Plasmodium falciparum [2])
CCc1ccc(CNCC(O)c2ccccc2)cc1 (configuration not stated)	1.37 µM	2.17 µM
Cc1c(C=O)c2ccccc2n1CC(=O)Nc1cccc(I)c1	3.03 µM	3 µM
COc1ccc(C(=O)NC(Nc2ccc(Cl)cc2)C(Cl)(Cl)Cl)cc1OC (configuration not stated)	1.86 µM	1.53 µM
CCOC(=O)c1cnc2ccc(OC)cc2c1Nc1ccc(N2CCN(C)CC2)cc1	1.29 µM	0.575 µM
CN1CCN(c2ccc(Nc3ccnc4cc(Cl)ccc34)cc2Cl)CC1	0.0571 µM	0.0625 µM
CCCCn1c(=O)c2c(nc3n(-c4ccc(C)c(Cl)c4)c(C)cn23)n(C)c1=O	> 15 µM	> 15 µM
CCCCCCCCn1ccc(=N)cc1	1.41 µM	2.18 µM
Cc1ccc(S(=O)(=O)Nc2cc(Sc3nc[nH]n3)c(O)c3ccccc23)c(C)c1	5.53 µM	3.67 µM
COC(=O)C1=CNC=C(C(=O)OC)C1c1ccc(Cl)c([N+](=O)[O-])c1	0.744 µM	0.62 µM
CCCc1cc(O)nc(-n2nc(C)cc2NC(=O)c2cc(C)cc(C)c2)n1	> 15 µM	> 15 µM
CCN1C=CC=C/C1=C/c1ccc2cc(C)ccc2[n+]1CC	0.453 µM	0.543 µM
Cc1ccc2ccc(C(Nc3ccccn3)c3ccncc3)c(O)c2n1 (configuration not stated)	> 15 µM	6.5 µM
CC(=O)Oc1ccc(Cl)cc1/C=C/c1cc(OC(C)=O)c2ccccc2n1	1.5 µM	> 15 µM
CCOc1ccc(-c2nonc2NC(=O)c2ccc(C)cc2)cc1OCC	> 15 µM	> 15 µM
O=C(NNc1nc2ccc(F)cc2s1)c1ccc(F)cc1	7.1 µM	> 15 µM
Cc1cc(C)c(S(=O)(=O)N(C)CC(=O)Nc2cccc(C(F)(F)F)c2)c(C)c1	> 15 µM	> 15 µM
CN1CCN(c2nc(Nc3cccc(Cl)c3)c3cnn(-c4ccccc4)c3n2)CC1	4.58 µM	3.88 µM
CCCc1cc(O)nc(-n2nc(C)cc2NC(=O)c2ccc(C(C)(C)C)cc2)n1	8.64 µM	> 15 µM
COc1ccc(CN2CCN(Cc3ccccc3)CC2)c(O)c1	0.754 µM	1.09 µM
CCN(CC)CCNC(=O)c1cc2c(-c3cccc(OC)c3)nn(C)c2s1	> 15 µM	4.04 µM
O=C(c1ccc(Cl)cc1Cl)N1CCCC(C(F)(F)F)C1 (configuration not stated)	> 15 µM	1.46 µM
CCOc1ccc(-c2nonc2NC(=O)c2ccccc2C)cc1OCC	1.38 µM	> 15 µM
O=C(NCC1Cc2cccc(-c3ccncc3)c2O1)c1csc2c1CCCC2 (configuration not stated)	> 15 µM	8.74 µM
